We go through 1 substance from US7022513B2, “Cell based signal generation” (priority 1999, dated 2006).

This experiment deals with strain CY7284. Briefly: lacZ assay, Cp5766 in strain CY7284 with integrated LexAop-lacZ. Type of experiment: cell-based, yeast. Conditions: after 3 hours of treatment, data not shown. The procedure:
In addition to transformation of the chimeric construct, the construct may also be integrated into the yeast strain. […] The lacZ assay was performed as described above.

Regarding a-factor, the “increase of β-galactosidase activities” value is given as 63 fold.
